This assay deals with DNA dC->dU-editing enzyme APOBEC-3G (Homo sapiens, UniProt Q9HC16). Kind of assay: inhibition of APOBEC3G ssDNA deamination – biochemical, fluorescence, single-stranded DNA substrate, SAR follow-up (AID 602136). Particulars: 25 °C.

The structures appear in SMILES notation.

These results are taken from BindingDB's records for doi:10.7270/Q25H7DV5 (Burnham Center For Chemical Genomics, 2011).

DNA dC->dU-editing enzyme APOBEC-3G, sequence (Q9HC16 whole entry): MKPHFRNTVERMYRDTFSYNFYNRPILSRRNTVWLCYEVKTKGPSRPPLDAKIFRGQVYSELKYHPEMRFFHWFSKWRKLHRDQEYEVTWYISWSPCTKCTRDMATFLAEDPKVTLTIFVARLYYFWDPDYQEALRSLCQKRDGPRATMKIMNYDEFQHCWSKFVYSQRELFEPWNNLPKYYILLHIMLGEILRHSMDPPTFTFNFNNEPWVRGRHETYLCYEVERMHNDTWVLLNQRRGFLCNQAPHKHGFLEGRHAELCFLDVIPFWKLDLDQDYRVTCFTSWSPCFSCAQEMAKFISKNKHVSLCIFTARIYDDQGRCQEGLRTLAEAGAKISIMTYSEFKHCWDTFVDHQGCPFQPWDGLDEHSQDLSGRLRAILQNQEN

Usually IC50 stands for the midpoint of a concentration-inhibition curve. Take `CC1(C)Oc2ccc3ccc(=O)oc3c2C(CN=O)=C1Cl` [9-chloro-2-keto-8,8-dimethyl-pyrano[2,3-f]chromene-10-carbaldehyde oxime]: the IC50 was greater than 99 µM.

Molecule `CCN1C(SCC(=O)NCc2ccco2)=NNC1=C1C=CC=CC1=O` came in with an IC50 greater than 99 µM.
